These results are taken from patent US9376418B2, “Substituted pyridine spleen tyrosine kinase (SYK) inhibitors” (Merck Sharp & Dohme Corp., priority 2012, dated 2016).

In the first experiment the target is T1, recombinant human GST-SYK (Homo sapiens, UniProt P43405).
T1 construct: purchased Carna Biosciences 08-176
Kind of experiment: Homogeneous Time-Resolved Fluorescence (HTRF) assay for the recombinant human Syk enzyme. The experiment is classed as biochemical. To be noted: HTRF assay, recombinant human GST-SYK; IC50 given as class symbols; read-out: rhSYK Activity. Summed up: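 Phosphotyrosine product from a biotinylated Syk substrate peptide was detected by HTRF (europium antibody/SA-APC, read after 30 min) following a 45-minute room-temperature reaction at 25 μM ATP, with […] preincubated 10 minutes with inhibitor.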
For orientation: Time-resolved FRET reads energy transfer from a long-lived donor to a nearby acceptor.
For `CC(=O)Nc1cc(Nc2nccc(C(F)(F)F)n2)cc(-c2ccc(NC(C)(C)C(=O)O)nc2)c1` [Example 7.1, N-{5-[3-(acetylamino)-5-{[4-(trifluoromethyl)pyrimidin-2-yl]amino}phenyl]pyridin-2-yl}-2-methylalanine], the IC50 was less than 100 nM. As for `Cc1cc(Nc2nccc(C(F)(F)F)n2)cc(-c2cncc(C3(O)CCN(C(N)=O)C3)c2)c1` (stereo not drawn) [Example 10.2, 3-hydroxy-3-[5-(3-methyl-5-{[4-(trifluoromethyl)pyrimidin-2-yl]amino}phenyl)pyridin-3-yl]pyrrolidine-1-carboxamide], the IC50 was less than 100 nM. The same measure, in the same setting: for `Cc1cc(Nc2nccc(C(F)(F)F)n2)cc(-c2ccc(N3CCCCC3CC(=O)O)nc2)c1` (stereo not drawn) [Example 7.132, {1-[5-(3-methyl-5-{[4-(trifluoromethyl)pyrimidin-2-yl]amino}phenyl)pyridin-2-yl]piperidin-2-yl}acetic acid] the value was less than 100 nM; for `Cc1cc(Nc2nccc(C(F)(F)F)n2)cc(-c2ccc(C(F)(F)CO)nc2)c1` [Example 2.117, 2,2-difluoro-2-[5-(3-methyl-5-{[4-(trifluoromethyl)pyrimidin-2-yl]amino}phenyl)pyridin-2-yl]ethanol], less than 100 nM; for `Cc1cc(Nc2nccc(C(F)(F)F)n2)cc(-c2ccc(NCCCC(=O)O)nc2)c1` [Example 7.102, 4-{[5-(3-methyl-5-{[4-(trifluoromethyl)pyrimidin-2-yl]amino}phenyl)pyridin-2-yl]amino}butanoic acid], less than 100 nM.

`CCCOC1CCCN(c2ccc(-c3cc(C)cc(Nc4nccc(C(F)(F)F)n4)c3)cn2)C1` (stereo not drawn) [Example 7.63, N-{3-methyl-5-[6-(3-propoxypiperidin-1-yl)pyridin-3-yl]phenyl}-4-(trifluoromethyl)pyrimidin-2-amine]: the IC50 lay within 100 to 1000 nM. With `Cc1cc(Nc2nccc(C(F)(F)F)n2)cc(-c2ccc(N3CCN(CC(=O)O)CC3)nc2)c1` [Example 7.140, {4-[5-(3-methyl-5-{[4-(trifluoromethyl)pyrimidin-2-yl]amino}phenyl)pyridin-2-yl]piperazin-1-yl}acetic acid], the IC50 is less than 100 nM. For the molecule `Cc1cc(Nc2nccc(C(F)(F)F)n2)cc(-c2ccc(N3CCNC(=O)C3)nc2)c1` [Example 7.67, 4-[5-(3-methyl-5-{[4-(trifluoromethyl)pyrimidin-2-yl]amino}phenyl)pyridin-2-yl]piperazin-2-one], the IC50 is less than 100 nM.

For `CNS(=O)(=O)CCNC(=O)c1ccc(-c2cc(C)cc(Nc3nccc(C(F)(F)F)n3)c2)cn1` [Example 16.57, N-[2-(methylsulfamoyl)ethyl]-5-(3-methyl-5-{[4-(trifluoromethyl)pyrimidin-2-yl]amino}phenyl)pyridine-2-carboxamide], the IC50 is less than 100 nM. On the same count and under the same terms, for `Cc1cc(Nc2nccc(C(F)(F)F)n2)cc(-c2cncc(C3(O)CCN(C(N)=O)CC3)c2)c1` [Example 10.1, 4-Hydroxy-4-[5-(3-methyl-5-{[4-(trifluoromethyl)pyrimidin-2-yl]amino}phenyl)pyridin-3-yl]piperidine-1-carboxamide] the value was less than 100 nM. The same measure, in the same setting: for `CCC(C)(C#N)Nc1ccc(-c2cc(C)cc(Nc3nccc(C(F)(F)F)n3)c2)cn1` (stereo not drawn) [Example 18.4, 2-methyl-2-{[5-(3-methyl-5-{[4-(trifluoromethyl)pyrimidin-2-yl]amino}phenyl)pyridin-2-yl]amino}butanenitrile] the value was 100 to 1000 nM; for `Cc1cc(Nc2nccc(C(F)(F)F)n2)cc(-c2ccnc(NC(C)(CO)CO)c2)c1` [Example 15.49, 2-methyl-2-{[4-(3-methyl-5-{[4-(trifluoromethyl)pyrimidin-2-yl]amino}phenyl)pyridin-2-yl]amino}propane-1,3-diol], less than 100 nM. On the same count and under the same terms, for `CCOC(=O)C(F)(F)C(O)c1ccc(-c2cc(C)cc(Nc3nccc(C(F)(F)F)n3)c2)cn1` (stereo not drawn) [Example 24.1, Ethyl 2,2-difluoro-3-hydroxy-3-[5-(3-methyl-5-{[4-(trifluoromethyl)pyrimidin-2-yl]amino}phenyl)pyridin-2-yl]propanoate] the value was less than 100 nM.

Take `CCOC(=O)CCc1ccnc(-c2cc(C)cc(Nc3nccc(C4CC4)n3)c2)c1` [Example 2.39, ethyl 3-(2-{3-[(4-cyclopropylpyrimidin-2-yl)amino]-5-methylphenyl}pyridin-4-yl)propanoate]: the IC50 lay within 100 to 1000 nM.

For the molecule `Cc1cc(Nc2nccc(C(F)(F)F)n2)cc(-c2ccc(C(C)(O)[C@H]3CC[C@H](C(=O)O)CC3)nc2)c1` (single isomer, unassigned) [Example 9.30, trans-4-{(1R or 1S)-1-hydroxy-1-[5-(3-methyl-5-{[4-(trifluoromethyl)pyrimidin-2-yl]amino}phenyl)pyridin-2-yl]ethyl}cyclohexanecarboxylic acid], the IC50 was less than 100 nM. Still for that read-out and setting: for `Cc1cc(Nc2nccc(C(F)(F)F)n2)cc(-c2cccc(C(=O)O)n2)c1` [Example 2.13, 6-(3-methyl-5-{[4-(trifluoromethyl)pyrimidin-2-yl]amino}phenyl)pyridine-2-carboxylic acid] the value was less than 100 nM; for `Cc1cc(Nc2nccc(C(F)(F)F)n2)cc(-c2cncc(C#N)c2)c1` [Example 2.56, 5-(3-methyl-5-{[4-(trifluoromethyl)pyrimidin-2-yl]amino}phenyl)pyridine-3-carbonitrile], less than 100 nM; for `Cc1cc(Nc2nccc(C(F)(F)F)n2)cc(-c2ccc(N[C@H](Cc3csc4ccccc34)C(=O)O)nc2)c1` [Example 7.79, 3-(1-benzothiophen-3-yl)-N-[5-(3-methyl-5-{[4-(trifluoromethyl)pyrimidin-2-yl]amino}phenyl)pyridin-2-yl]-D-alanine], less than 100 nM.

Turning to `CC(=O)c1ccc(-c2cc(C)cc(Nc3nccc(C(F)(F)F)n3)c2)cn1` [Example 2.113, 1-[5-(3-methyl-5-{[4-(trifluoromethyl)pyrimidin-2-yl]amino}phenyl)pyridin-2-yl]ethanone], the IC50 is 100 to 1000 nM. On the same count and under the same terms, for `Cc1cc(Nc2nccc(C(F)(F)F)n2)cc(-c2cncc(C(C)(O)CO)c2)c1` (stereo not drawn) [Example 9.68, 2-[5-(3-methyl-5-{[4-(trifluoromethyl)pyrimidin-2-yl]amino}phenyl)pyridin-3-yl]propane-1,2-diol] the value was less than 100 nM; for `CNC(=O)CNc1ccc(-c2cc(C)cc(Nc3nccc(C(F)(F)F)n3)c2)cn1` [Example 7.29, N-methyl-N~2~-[5-(3-methyl-5-{[4-(trifluoromethyl)pyrimidin-2-yl]amino}phenyl)pyridin-2-yl]glycinamide], less than 100 nM; for `CNC(=O)CCNc1cc(-c2cc(C)cc(Nc3nccc(C(F)(F)F)n3)c2)ccn1` [Example 15.78, N-methyl-N~3~-[4-(3-methyl-5-{[4-(trifluoromethyl)pyrimidin-2-yl]amino}phenyl)pyridin-2-yl]-beta-alaninamide], 100 to 1000 nM. The same measure, in the same setting: for `Cc1cc(Nc2nccc(C3CC3)n2)cc(-c2ccc(CCC(=O)O)nc2)c1` [Example 2.101, 3-(5-{3-[(4-cyclopropylpyrimidin-2-yl)amino]-5-methylphenyl}pyridin-2-yl)propanoic acid] the value was less than 100 nM. With `CCC(O)(CC)c1cccc(-c2cccc(Nc3nccc(C(F)(F)F)n3)c2)n1` [Example 2.4, 3-[6-(3-{[4-(trifluoromethyl)pyrimidin-2-yl]amino}phenyl)pyridin-2-yl]pentan-3-ol], the IC50 was 100 to 1000 nM. Still for that read-out and setting: for `Cc1cc(Nc2nccc(C(F)(F)F)n2)cc(-c2ccnc(CCC(=O)O)c2)c1` [Example 2.133, 3-[4-(3-methyl-5-{[4-(trifluoromethyl)pyrimidin-2-yl]amino}phenyl)pyridin-2-yl]propanoic acid] the value was less than 100 nM; for `Cc1cc(Nc2nccc(C(F)(F)F)n2)cc(-c2cnc(N(C)C)c(C(=O)O)c2)c1` [Example 2.72, 2-(dimethylamino)-5-(3-methyl-5-{[4-(trifluoromethyl)pyrimidin-2-yl]amino}phenyl)pyridine-3-carboxylic acid], less than 100 nM. On the same count and under the same terms, for `Cc1cc(Nc2nccc(C(F)(F)F)n2)cc(-c2ccc(N[C@H](CO)C(=O)O)nc2)c1` [Example 7.108, N-[5-(3-methyl-5-{[4-(trifluoromethyl)pyrimidin-2-yl]amino}phenyl)pyridin-2-yl]-D-serine] the value was less than 100 nM; for `Cc1cc(Nc2nccc(C(F)(F)F)n2)cc(-c2ccc(C(=O)N3CCN(CC(F)(F)F)CC3)nc2)c1` [Example 16.65, N-[3-methyl-5-(6-{[4-(2,2,2-trifluoroethyl)piperazin-1-yl]carbonyl}pyridin-3-yl)phenyl]-4-(trifluoromethyl)pyrimidin-2-amine], 100 to 1000 nM.

Turning to `Cc1cc(Nc2nccc(C(F)(F)F)n2)cc(-c2ccc(C(NC(N)=O)(C3CC3)C3CC3)nc2)c1` [Example 19.1, 1-{Dicyclopropyl[5-(3-methyl-5-{[4-(trifluoromethyl)pyrimidin-2-yl]amino}phenyl)pyridin-2-yl]methyl}urea], the IC50 is less than 100 nM. The same measure, in the same setting: for `Cc1cc(Nc2nccc(C(F)(F)F)n2)cc(-c2ccc(C3(O)CCN(C(N)=O)C3)nc2)c1` (stereo not drawn) [Example 10.4, 3-hydroxy-3-[5-(3-methyl-5-{[4-(trifluoromethyl)pyrimidin-2-yl]amino}phenyl)pyridin-2-yl]pyrrolidine-1-carboxamide] the value was less than 100 nM; for `Cc1cc(Nc2nccc(C(F)(F)F)n2)cc(-c2ccnc(N3CCN(C=O)CC3)c2)c1` [Example 15.24, 4-[4-(3-methyl-5-{[4-(trifluoromethyl)pyrimidin-2-yl]amino}phenyl)pyridin-2-yl]piperazine-1-carbaldehyde], less than 100 nM.

Staying with this experiment, now noted: recombinant GST-hSYK, 25 μM ATP, HTRF; read-out: IC50 (inhibition of human Syk activity).
Regarding `CC(=O)Nc1cc(Nc2nccc(C(F)(F)F)n2)cc(-c2ccc(NC(C)(C)C(=O)O)nc2)c1` [Example 7.1, N-{5-[3-(acetylamino)-5-{[4-(trifluoromethyl)pyrimidin-2-yl]amino}phenyl]pyridin-2-yl}-2-methylalanine], the IC50 was determined as 3.9 nM. On the same count and under the same terms, for `CCCOC1CCCN(c2ccc(-c3cc(C)cc(Nc4nccc(C(F)(F)F)n4)c3)cn2)C1` (stereo not drawn) [Example 7.63, N-{3-methyl-5-[6-(3-propoxypiperidin-1-yl)pyridin-3-yl]phenyl}-4-(trifluoromethyl)pyrimidin-2-amine] the value was 700 nM.
